Laboratory results from ChEMBL document CHEMBL3885881, “DrugMatrix”.

Species: Rattus norvegicus
Test: DrugMatrix - Regimen: Daily Repeat
Type: toxicity, organism-based, Sprague-Dawley
Parameters: regimen Daily Repeat, gender Male, age 6-8 weeks
Details: in vivo, po, route oral GAVAGE, vehicle .5 % CMC; for ABSOLUTE BASOPHIL / ABSOLUTE EOSINOPHIL / ABSOLUTE LYMPHOCYTE / ABSOLUTE MONOCYTE / ABSOLUTE SEGMENTED NEUTROPHIL / BASOPHIL / EOSINOPHIL / ERYTHROCYTE COUNT / HEMATOCRIT / HEMOGLOBIN / LEUKOCYTE COUNT / LYMPHOCYTE / MEAN CORPUSCULAR HEMOGLOBIN / MEAN CORPUSCULAR HEMOGLOBIN CONCENTRATION / MEAN CORPUSCULAR VOLUME / MONOCYTE / NEUTROPHIL / NUCLEATED RED BLOOD CELLS / PLATELET COUNT: tissue Blood; for ALANINE AMINOTRANSFERASE / ALBUMIN / ALKALINE PHOSPHATASE / ASPARTATE AMINOTRANSFERASE / BLOOD UREA NITROGEN / CARBON DIOXIDE / CHLORIDE / CHOLESTEROL / CREATINE PHOSPHOKINASE / CREATININE / GLUCOSE / LACTATE DEHYDROGENASE / LIPASE / PHOSPHORUS / POTASSIUM / SODIUM / TOTAL BILIRUBIN / TOTAL PROTEIN / URIC ACID: tissue Plasma
[1] = 29 mg/kg, 120 h, dose level Low, time 5 day
[2] = 400 mg/kg, 72 h, dose level High, time 3 day
[3] = 400 mg/kg, 120 h, dose level High, time 5 day

NC(=O)NC(=O)Cc1ccccc1 [PHENACEMIDE]
ABSOLUTE BASOPHIL [1]: 0 CELLS/uL | ABSOLUTE EOSINOPHIL [1]: 29.33 CELLS/uL | ABSOLUTE LYMPHOCYTE [1]: 6627.33 CELLS/uL | ABSOLUTE MONOCYTE [1]: 106 CELLS/uL | ABSOLUTE SEGMENTED NEUTROPHIL [1]: 904 CELLS/uL | BASOPHIL [1]: 0% | EOSINOPHIL [1]: 0.33% | ERYTHROCYTE COUNT [1]: 5.3 x10E6/uL | HEMATOCRIT [1]: 32% | HEMOGLOBIN [1]: 12.6 G/DL | LEUKOCYTE COUNT [1]: 7.67 x10E3/uL | LYMPHOCYTE [1]: 86% | MEAN CORPUSCULAR HEMOGLOBIN [1]: 23.8 pg | MEAN CORPUSCULAR HEMOGLOBIN CONCENTRATION [1]: 39.37 G/DL | MEAN CORPUSCULAR VOLUME [1]: 60.37 fL | MONOCYTE [1]: 1.33% | NEUTROPHIL [1]: 12.33% | NUCLEATED RED BLOOD CELLS [1]: 0 /100WBC | PLATELET COUNT [1]: 1108.33 x10E3/uL | ALANINE AMINOTRANSFERASE [1]: 42.67 u/L | ALBUMIN [1]: 4.13 G/DL | ALKALINE PHOSPHATASE [1]: 433.33 u/L | ASPARTATE AMINOTRANSFERASE [1]: 75.33 u/L | BLOOD UREA NITROGEN [1]: 15.33 mg/dL | CARBON DIOXIDE [1]: 25.67 mmol/L | CHLORIDE [1]: 102.33 MEQ/L | CHOLESTEROL [1]: 82.67 mg/dL | CREATINE PHOSPHOKINASE [1]: 189.67 u/L | CREATININE [1]: 0.28 mg/dL | GLUCOSE [1]: 176.33 mg/dL | LACTATE DEHYDROGENASE [1]: 163.33 u/L | LIPASE [1]: 10 u/L | PHOSPHORUS [1]: 11.93 mg/dL | POTASSIUM [1]: 5.88 MEQ/L | SODIUM [1]: 145.3 MEQ/L | TOTAL BILIRUBIN [1]: 0.1 mg/dL | TOTAL PROTEIN [1]: 6.07 G/DL | URIC ACID [1]: 1.5 mg/dL | ABSOLUTE BASOPHIL [2]: 0 CELLS/uL | ABSOLUTE EOSINOPHIL [2]: 62.33 CELLS/uL | ABSOLUTE LYMPHOCYTE [2]: 7750.67 CELLS/uL | ABSOLUTE MONOCYTE [2]: 54.67 CELLS/uL | ABSOLUTE SEGMENTED NEUTROPHIL [2]: 1099 CELLS/uL | BASOPHIL [2]: 0% | EOSINOPHIL [2]: 0.67% | ERYTHROCYTE COUNT [2]: 5.14 x10E6/uL | HEMATOCRIT [2]: 31.23% | HEMOGLOBIN [2]: 11.97 G/DL | LEUKOCYTE COUNT [2]: 8.97 x10E3/uL | LYMPHOCYTE [2]: 86.67% | MEAN CORPUSCULAR HEMOGLOBIN [2]: 23.33 pg | MEAN CORPUSCULAR HEMOGLOBIN CONCENTRATION [2]: 38.33 G/DL | MEAN CORPUSCULAR VOLUME [2]: 60.87 fL | MONOCYTE [2]: 0.67% | NEUTROPHIL [2]: 12% | NUCLEATED RED BLOOD CELLS [2]: 0.67 /100WBC | PLATELET COUNT [2]: 1052.67 x10E3/uL | ALANINE AMINOTRANSFERASE [2]: 54 u/L | ALBUMIN [2]: 4.33 G/DL | ALKALINE PHOSPHATASE [2]: 480.33 u/L | ASPARTATE AMINOTRANSFERASE [2]: 86 u/L | BLOOD UREA NITROGEN [2]: 17 mg/dL | CARBON DIOXIDE [2]: 30 mmol/L | CHLORIDE [2]: 104 MEQ/L | CHOLESTEROL [2]: 77.67 mg/dL | CREATINE PHOSPHOKINASE [2]: 137.33 u/L | CREATININE [2]: 0.47 mg/dL | GLUCOSE [2]: 160.67 mg/dL | LACTATE DEHYDROGENASE [2]: 98.33 u/L | LIPASE [2]: 11 u/L | PHOSPHORUS [2]: 13.1 mg/dL | POTASSIUM [2]: 5.91 MEQ/L | SODIUM [2]: 148.57 MEQ/L | TOTAL BILIRUBIN [2]: 0.13 mg/dL | TOTAL PROTEIN [2]: 6 G/DL | URIC ACID [2]: 1.17 mg/dL | ABSOLUTE BASOPHIL [3]: 0 CELLS/uL | ABSOLUTE EOSINOPHIL [3]: 0 CELLS/uL | ABSOLUTE LYMPHOCYTE [3]: 9516.67 CELLS/uL | ABSOLUTE MONOCYTE [3]: 47 CELLS/uL | ABSOLUTE SEGMENTED NEUTROPHIL [3]: 1103 CELLS/uL | BASOPHIL [3]: 0% | EOSINOPHIL [3]: 0% | ERYTHROCYTE COUNT [3]: 5.74 x10E6/uL | HEMATOCRIT [3]: 34.53% | HEMOGLOBIN [3]: 13.23 G/DL | LEUKOCYTE COUNT [3]: 10.67 x10E3/uL | LYMPHOCYTE [3]: 88.67% | MEAN CORPUSCULAR HEMOGLOBIN [3]: 23.07 pg | MEAN CORPUSCULAR HEMOGLOBIN CONCENTRATION [3]: 38.33 G/DL | MEAN CORPUSCULAR VOLUME [3]: 60.23 fL | MONOCYTE [3]: 0.33% | NEUTROPHIL [3]: 11% | NUCLEATED RED BLOOD CELLS [3]: 0 /100WBC | PLATELET COUNT [3]: 1161.33 x10E3/uL | ALANINE AMINOTRANSFERASE [3]: 47 u/L | ALBUMIN [3]: 4.43 G/DL | ALKALINE PHOSPHATASE [3]: 491.67 u/L | ASPARTATE AMINOTRANSFERASE [3]: 84.33 u/L | BLOOD UREA NITROGEN [3]: 22 mg/dL | CARBON DIOXIDE [3]: 24.67 mmol/L | CHLORIDE [3]: 105 MEQ/L | CHOLESTEROL [3]: 64 mg/dL | CREATINE PHOSPHOKINASE [3]: 157 u/L | CREATININE [3]: 0.73 mg/dL | GLUCOSE [3]: 176.33 mg/dL | LACTATE DEHYDROGENASE [3]: 96.33 u/L | LIPASE [3]: 8.67 u/L | PHOSPHORUS [3]: 12.63 mg/dL | POTASSIUM [3]: 6.59 MEQ/L | SODIUM [3]: 146.77 MEQ/L | TOTAL BILIRUBIN [3]: 0.1 mg/dL | TOTAL PROTEIN [3]: 5.97 G/DL | URIC ACID [3]: 1.8 mg/dL
